Data: paper PMC11380953, “Multivalent, calcium-independent binding of surfactant protein A and D to sulfated glycosaminoglycans of the alveolar epithelial glycocalyx” (American Journal of Physiology - Lung Cellular and …, 2024)

Target: T1, hSP-A (Homo sapiens, UniProt Q8IWL1+Q8IWL2)
T1 construct: Human PAP patient, BAL isolated; from tissue; host or cells: bronchoalveolar lavage fluid of a patient with pulmonary alveolar proteinosis
Assay: Collectin-based binding assay (immobilized hSP-A, WGA-AlexaFluor488 detection)
Details: for normalized fluorescence of WGA bound to GAG on immobilized hSP-A: absence of calcium (Fig. 4B, C); for binding of immobilized hSP-A to GAG (normalized fluorescence): presence of 5 mM calcium (Fig. 4B, C)
Method: hSP-A was immobilized in a black 96-well plate (655076, Greiner BIO-One, Frickenhausen, Germany) by coating the plate with a specific anti-SP-A antibody (Abcam, abab190087, Cambridge, UK) at a concentration of 0.5 µg/mL in coating buffer [0.1 M NaHCO3 buffer (pH 9.6)] at 4°C overnight. Afterward, the plate was blocked with 100 µL Synblock (Bio-Rad, BUF034B, California) for 2 h at room temperature. Then, hSP-A was added at 14 ng/well and incubated with the antibody for 1 h at room temperature in washing buffer (5 mM Tris, 0.9% NaCl, and 0.05% Tween-20) to immobilize it. After washing with washing buffer, different concentrations of HA or HS ranging from 10 mM to 1 nM were added in either washing buffer without calcium or with 5 mM CaCl2 and incubated with the immobilized protein for 1 h at room temperature. The following washing steps were performed with washing buffer containing no calcium or 5 mM CaCl2. To detect the GAGs bound to the protein, an AlexaFluor488-conjugated wheat germ agglutinin (WGA, W11261, Invitrogen, Massachusetts) was added at 50 µg/mL in washing buffer containing no calcium or 5 mM CaCl2 and incubated it for 30 min at room temperature protected from light. After washing with washing buffer with or without calcium, 100 µL of washing buffer without calcium was added to read the fluorescence of the bound WGA with an excitation filter at 485 nm and an emission filter at 520 nm in a plate reader (FLUOstar Omega, BMG Labtech, Ortenberg, Germany).
The data of the binding inhibition assay were analyzed in GraphPad Prism 9.5.1 using the “normalize” function and fitting to the nonlinear regression dose-response inhibition. The best fitting was achieved using the “[Inhibitor] versus response–variable slope (four parameters)” model. The fluorescence values from the collectin-based binding assay were normalized using the same “normalize” function in GraphPad, and the statistical test used was the “non-parametric Kruskal-Wallis” test. The statistical test used for the DMMB assay for GAG quantification was also the “non-parametric Kruskal-Wallis” test.

T1 sequence (Q8IWL2 21-248): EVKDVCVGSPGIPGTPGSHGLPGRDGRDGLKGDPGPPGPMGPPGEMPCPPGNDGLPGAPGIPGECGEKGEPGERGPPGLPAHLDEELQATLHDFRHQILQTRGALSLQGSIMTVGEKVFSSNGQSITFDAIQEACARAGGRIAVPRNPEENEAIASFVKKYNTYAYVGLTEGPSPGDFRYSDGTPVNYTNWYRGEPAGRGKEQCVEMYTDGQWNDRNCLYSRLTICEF
T1 sequence (Q8IWL1 21-248): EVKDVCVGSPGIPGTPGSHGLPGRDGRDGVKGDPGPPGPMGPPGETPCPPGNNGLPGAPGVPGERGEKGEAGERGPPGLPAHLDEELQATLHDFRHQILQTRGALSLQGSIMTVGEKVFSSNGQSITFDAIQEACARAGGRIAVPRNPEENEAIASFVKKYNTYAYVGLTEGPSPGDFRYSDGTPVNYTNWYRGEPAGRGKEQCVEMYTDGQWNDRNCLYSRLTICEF

Row | Substance | normalized fluorescence of WGA bound to GAG on immobilized hSP-A | binding of immobilized hSP-A to GAG (normalized fluorescence)
1 | hyaluronic acid sodium salt [HA] | no significant increase in fluorescence | able to bind
2 | heparan sulfate sodium [HS] | increased fluorescence | able to bind
